Counter-ions that a name gives are not always drawn.
Target: GSK-3β (Homo sapiens, UniProt P49841)
Assay: GSK3 scintillation proximity assay (SPA) kinase assay
Type: biochemical
Conditions: 20 nM kinase, 2.5 uM ATP, biotinylated glycogen synthase peptide, 40 minutes at room temperature; -log IC50 in Molar; read-out: GSK-3 pIC50 (converted)
From the text: The phosphorylated biotinylated peptide is then captured onto streptavidin coated scintillation proximity assay (SPA) beads from Amersham Technology, where the signal from the ^33P is amplified via the scintillant contained in the beads.
GSK-3β is commercially available or may be cloned and expressed in E. coli using standard techniques to produce soluble, active protein. The production of active protein involves purification in two steps using Metal Chelate and Ion Exchange Chromatography. Protein eluting from Ion Exchange provides >90% pure product that may then be concentrated for use in high throughput screening.
The kinase was assayed at a concentration of 20 nM final in 100 mM HEPES, pH 7.2 containing 10 mM magnesium chloride, 0.1 mg/mL bovine serum albumin, 1 mM dithiothreitol, 0.3 mg/mL heparin, 2.8 uM peptide substrate, 2.5 uM ATP, and 0.2 uCi/well [[…]-^33P]-ATP. After 40 minutes incubation at room temperature, the reaction was stopped by addition of 100 mM EDTA and […] in 100 mM HEPES, pH7.2 followed by an additional solution of diluted Streptavidin coated SPA beads in PBS, pH 7.2 to give a final concentration of 0.25 mg of beads per assay well in a 96-well microtiter plate.
10 mM stock solutions of the compounds of the invention in 100% DMSO are generated as a first step in the screening process. The second step involves the creation of dose response plates where these compounds are diluted 10-fold in 100% DMSO to 1 mM concentrations and subsequently serially diluted 3-fold in 100% DMSO across the plate by automated liquid handling such that the final top concentration of inhibitor is 0.033 mM in the 30 uL kinase assay. The third step involves the creation of the assay plates. This is achieved by transferring 1 uL of the compounds to assay plates by automated liquid handling. The fourth step is to perform the assay as described and count the resulting plates in the Packard TopCount NXT microplate scintillation and luminescence counter.
The final step is data acquisition and analysis where IC50 values are generated for each compound by normalizing curve data to the equation 100*(U1−C2)/(C1−C2) (where U1 is the cpm value, C2 is the background, and C1 is the maximum number of counts), then fitting the normalized data to the equation y=Vmax*(1−(x/(K+x))). The IC50 values were converted to pIC50 values, i.e., −log IC50 in Molar concentration. The data is expressed below in Table 1.

Sequence of GSK-3β (P49841 whole entry, species assumed): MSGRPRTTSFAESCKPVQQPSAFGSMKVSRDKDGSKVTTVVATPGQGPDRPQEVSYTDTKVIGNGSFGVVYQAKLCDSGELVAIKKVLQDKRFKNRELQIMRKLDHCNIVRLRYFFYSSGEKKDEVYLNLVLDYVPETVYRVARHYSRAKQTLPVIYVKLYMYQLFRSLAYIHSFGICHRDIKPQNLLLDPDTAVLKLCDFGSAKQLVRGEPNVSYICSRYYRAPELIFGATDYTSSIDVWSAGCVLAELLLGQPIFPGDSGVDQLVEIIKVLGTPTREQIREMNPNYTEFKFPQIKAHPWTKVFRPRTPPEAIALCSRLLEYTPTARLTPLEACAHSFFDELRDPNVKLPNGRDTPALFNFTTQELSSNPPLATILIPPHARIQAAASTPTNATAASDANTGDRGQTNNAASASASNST

SMILES | IC50
C(=N\Nc1ncnc2c1cnn2-c1ccccc1)/C1CCNCC1 [Example 9, Piperidine-4-carbaldehyde (1-phenyl-1H-pyrazolo[3,4-d]pyrimidin-4-yl)hydrazone trifluoroacetate] | 0.1 to 1 µM
C(=N\Nc1ncnc2c1cnn2-c1ccccc1)/c1cnc2ccccc2c1 [Example 4, Quinoline-3-carbaldehyde (1-phenyl-1H-pyrazolo[3,4-d]pyrimidin-4-yl)hydrazone] | 0.1 to 1 µM
CS(=O)(=O)CCNC(=O)c1cccc(/C=N/Nc2ncnc3c2cnn3-c2ccccc2)c1 [Example 41] | 0.1 to 1 µM
COc1cc(/C=N/Nc2ncnc3c2cnn3-c2ccccc2)ccn1 [Example 15, 2-methoxyisonicotinaldehyde (1-phenyl-1H-pyrazolo[3,4-d]pyrimidin-4-yl)hydrazone] | 0.1 to 1 µM
O=S(=O)(NCCCN1CCCC1)c1ccc(/C=N/Nc2ncnc3c2cnn3-c2ccccc2)cc1 [Example 23, 4-{(E)-[(1-phenyl-1H-pyrazolo[3,4-d]pyrimidin-4-yl)hydrazono]methyl}-N-(3-pyrrolidin-1-ylpropyl)benzenesulfonamide] | < 0.1 µM
C(=N\Nc1ncnc2c1cnn2-c1ccccc1)/c1ccnc2ccccc12 [Example 62, 4-Quinolinecarboxaldehyde [1-(phenyl)-1H-pyrazolo[3,4-d]pyrimidin-4-yl]hydrazone] | 1 to 10 µM
CN(C)CCNC(=O)c1cccc(/C=N/Nc2ncnc3c2cnn3-c2ccccc2)c1 [Example 40, N-[2-(dimethylamino)ethyl]-3-{(E)-[(1-phenyl-1H-pyrazolo[3,4-d]pyrimidin-4-yl)hydrazono]methyl}benzamide] | < 0.1 µM
COc1ccc(/C=N/Nc2ncnc3c2cnn3-c2ccccc2)cn1 [Example 17, 6-methoxynicotinaldehyde (1-phenyl-1H-pyrazolo[3,4-d]pyrimidin-4-yl)hydrazone] | 0.1 to 1 µM
CN(C)c1ccc(/C=N/Nc2ncnc3c2cnn3-c2ccccc2)cn1 [Example 13, 6-(dimethylamino)nicotinaldehyde (1-phenyl-1H-pyrazolo[3,4-d]pyrimidin-4-yl)hydrazone] | 1 to 10 µM
O=S(=O)(NCCN1CCOCC1)c1ccc(/C=N/Nc2ncnc3c2cnn3-c2ccccc2)cc1 [Example 21, N-(2-morpholin-4-ylethyl)-4-{(E)-[(1-phenyl-1H-pyrazolo[3,4-d]pyrimidin-4-yl)hydrazono]methyl}benzenesulfonamide] | < 0.1 µM
Cc1ccc(/C=N/Nc2ncnc3c2cnn3-c2ccccc2)o1 [Example 59, 5-Methyl-2-furaldehyde [1-(phenyl)-1H-pyrazolo[3,4-d]pyrimidin-4-yl]hydrazone] | 0.1 to 1 µM
CN(C)CCNS(=O)(=O)c1ccc(/C=N/Nc2ncnc3c2cnn3-c2ccccc2)cc1 [Example 22, N[2-(dimethylamino)ethyl]-4-[{(E)[(1-phenyl-1H-pyrazolo[3,4-d]pyrimidin-4-yl)hydrazono]methyl}benzenesulfonamide hydrochloride] | < 0.1 µM
O=C(NCc1ccccn1)c1ccc(/C=N/Nc2ncnc3c2cnn3-c2ccccc2)cc1 [Example 28, 4-{(E)-[(1-phenyl-1H-pyrazolo[3,4-d]pyrimidin-4-yl)hydrazono]methyl}-N-(pyridin-2-ylmethyl)benzamide] | 0.1 to 1 µM
Clc1ccc(/C=N/Nc2ncnc3c2cnn3-c2ccccc2)cn1 [Example 16, 6-chloronicotinaldehyde (1-phenyl-1H-pyrazolo[3,4-d]pyrimidin-4-yl)hydrazone] | < 0.1 µM
CN(C)CCOc1ccc(/C=N/Nc2ncnc3c2cnn3-c2ccccc2)cn1 [Example 18, 6-[2-(dimethylamino)ethoxy]nicotinaldehyde (1-phenyl-1H-pyrazolo[3,4-d]pyrimidin-4-yl)hydrazone] | 0.1 to 1 µM
CN(C)CCNc1ccc(/C=N/Nc2ncnc3c2cnn3-c2ccccc2)cn1 [Example 19, 6-{[2-(dimethylamino)ethyl]amino}nicotinaldehyde (1-phenyl-1H-pyrazolo[3,4-d]pyrimidin-4-yl)hydrazone hydrochloride] | < 0.1 µM
CC(=O)Nc1ccc(/C=N/Nc2ncnc3c2cnn3-c2ccccc2)cn1 [Example 10, N-(5-{(E)-[2-(1-phenyl-1H-pyrazolo[3,4-d]pyrimidin-4-yl)hydrazono]methyl}pyridin-2-yl)acetamide] | < 0.1 µM
CCc1ccc(/C=N/Nc2ncnc3c2cnn3-c2ccccc2)o1 [Example 57, 5-Ethyl-2-furaldehyde [1-(phenyl)-1H-pyrazolo[3,4-d]pyrimidin-4-yl]hydrazone] | 1 to 10 µM
O=C(NCCN1CCOCC1)c1cccc(/C=N/Nc2ncnc3c2cnn3-c2ccccc2)c1 [Example 42, N-(2-morpholin-4-ylethyl)-3-{(E)-[(1-phenyl-1H-pyrazolo[3,4-d]pyrimidin-4-yl)hydrazono]methyl}benzamide] | 0.1 to 1 µM
Nc1ccc(/C=N/Nc2ncnc3c2cnn3-c2ccccc2)cn1 [Example 12, 6-aminonicotinaldehyde (1-phenyl-1H-pyrazolo[3,4-d]pyrimidin-4-yl)hydrazone trifluoroacetate] | 0.1 to 1 µM
CC(C)(C)OC(=O)N1CCC(/C=N/Nc2ncnc3c2cnn3-c2ccccc2)CC1 [Example 8, tert-butyl 4-{(E)-[(1-phenyl-1H-pyrazolo[3,4-d]pyrimidin-4-yl)hydrazono]methyl}piperidine-1-carboxylate] | 0.1 to 1 µM
Clc1cc(/C=N/Nc2ncnc3c2cnn3-c2ccccc2)ccn1 [Example 14, 2-chloroisonicotinaldehyde (1-phenyl-1H-pyrazolo[3,4-d]pyrimidin-4-yl)hydrazone] | 0.1 to 1 µM
COC(=O)c1cccc(/C=N/Nc2ncnc3c2cnn3-c2ccccc2)c1 [Example 3, Methyl 3-{(E)-[(1-phenyl-1H-pyrazolo[3,4-d]pyrimidin-4-yl)hydrazono]methyl}benzoate] | 0.1 to 1 µM

From US20050267133A1, “Pyrazolopyrimidines as kinase inhibitors” (priority 2002, published 2005)
